Laboratory results published in ChEMBL document CHEMBL1156829 (Proc Natl Acad Sci U S A, 2008).

Assays:
[1] = NOVARTIS: Cytotoxicity against human hepatocellular carcinoma cell line (Huh7); assay type: toxicity, cell-based, Huh-7; conditions: Huh7 cells (hepatocellular carcinoma cell line)
[2] = system: Plasmodium falciparum; assay: NOVARTIS: Inhibition of Plasmodium falciparum 3D7 (drug-susceptible) proliferation in erythrocyte-based infection assay; assay type: functional, organism-based; conditions: Plasmodium falciparum, 3D7
[3] = system: Plasmodium falciparum; assay: NOVARTIS: Inhibition of Plasmodium falciparum W2 (drug-resistant) proliferation in erythrocyte-based infection assay; assay type: functional, organism-based; conditions: Plasmodium falciparum, W2; read-out: EC50

## COc1ccc(-c2csc3nc(COc4cccc(C)c4)nn23)c(O)c1
[1]
  CC50: > 100000 nM
[2]
  EC50: > 4620 nM
[3]
  EC50: 7590 nM

## CCCCCCCCCCCCCC(=O)Oc1ccccc1-c1nc2cc(C)ccn2c1NC(C)(C)CC(C)(C)C
[1]
  CC50: > 10000 nM
[2]
  EC50: 1520 nM
[3]
  EC50: 88.4 nM

## COc1ccc(N2C(N)=NC(N)=NC23CCCC3)cc1
[1]
  CC50: > 100000 nM
[2]
  EC50: 393 nM
[3]
  EC50: 6350 nM

## COc1ccc(NC(=O)c2c(Cl)nc(Cl)c([N+](=O)[O-])c2C)cc1
[1]
  CC50: > 10000 nM
[2]
  EC50: > 1250 nM
[3]
  EC50: 2060 nM

## CC(=O)Nc1cc(C(=O)Nc2ccc(C3=NCCN3)cc2)ccc1C(=O)Nc1ccc(C2=NCCN2)cc1
[1]
  CC50: > 100000 nM
[2]
  EC50: 323 nM
[3]
  EC50: 103 nM

## COc1ccc(C(=O)N2C(C(=O)NCCC(C)C)CSC2c2ccc(C(C)(C)C)cc2)cc1 (configuration not stated)
[1]
  CC50: > 4480 nM
[2]
  EC50: 797 nM
[3]
  EC50: 1120 nM

## COc1ccc(C2Nc3ccc([N+](=O)[O-])cc3C3C=CCC32)cc1[N+](=O)[O-] (configuration not stated)
[1]
  CC50: > 100000 nM
[2]
  EC50: 1500 nM
[3]
  EC50: 616 nM

## CCC(C)OC(=O)C1=C(C)NC2=C(C(=O)CC(c3ccc(Cl)cc3)C2)C1c1cccc(O)c1 (configuration not stated)
[1]
  CC50: 39600 nM
[2]
  EC50: 1020 nM
[3]
  EC50: 147 nM

## CCOC(=O)c1cnn(-c2ccnc3cc(Cl)ccc23)c1CNC(C)c1ccco1 (configuration not stated)
[1]
  CC50: 38900 nM
[2]
  EC50: 795 nM
[3]
  EC50: 448 nM

## CCOc1ccc(/C=C(/C#N)c2nc3ccccc3[nH]2)cc1OC
[1]
  CC50: > 10000 nM
[2]
  EC50: 1500 nM
[3]
  EC50: 405 nM

## CC(Cc1ccccc1)NCCCCCNC(C)Cc1ccccc1 (configuration not stated)
[1]
  CC50: 5320 nM
[2]
  EC50: 238 nM
[3]
  EC50: 503 nM

## CCN(CC)S(=O)(=O)c1ccc(C(=O)NCc2nnc(SCC(=O)N3CCc4ccccc43)n2-c2ccccc2OC)cc1
[1]
  CC50: > 10000 nM
[2]
  EC50: > 1250 nM
[3]
  EC50: 26.7 nM

## COc1ccc(CN2CCN(C(=O)c3cccnc3)CC2)cc1OC
[1]
  CC50: > 100000 nM
[2]
  EC50: 349 nM
[3]
  EC50: 2010 nM

## CC12CCC(CN(CC(O)Cn3c4ccc(Br)cc4c4cc(Br)ccc43)C1)C2(C)C (configuration not stated)
[1]
  CC50: > 100000 nM
[2]
  EC50: 2960 nM
[3]
  EC50: 2200 nM

## NCCC(=O)N1CC(c2ccccc2)c2ccccc2C1CN1CCCCC1 (configuration not stated)
[1]
  CC50: 8520 nM
[2]
  EC50: 342 nM
[3]
  EC50: 231 nM

## COc1c(N2CCN(Cc3c(C)cc(C)cc3C)CC2)c2nc3oc2c2c(OC(=O)C(C)(C)C)c(C)c4c(c12)[C@@H](O)[C@@](C)(OC=C[C@H](OC)[C@@H](C)[C@@H](OC(C)=O)C(C)[C@H](O)[C@H](C)[C@@H](O)C(C)C=CC=C3C)O4 (some centres not stated)
[1]
  CC50: > 10000 nM
[2]
  EC50: 221 nM
[3]
  EC50: 554 nM

## COC(=O)c1c(S(=O)(=O)NCCN(C)C)sc2c1CCN(CC(C)c1ccccc1)C2 (configuration not stated)
[1]
  CC50: > 10000 nM
[2]
  EC50: 1610 nM
[3]
  EC50: > 1320 nM

## COc1cccc(OCCN2CCN(c3ncnc4c3cnn4-c3ccccc3)CC2)c1
[1]
  CC50: > 75700 nM
[2]
  EC50: 6250 nM
[3]
  EC50: 4050 nM

## COc1ccc(C(=O)N2C(C(=O)Nc3ccccc3F)CSC2c2ccc(C(C)(C)C)cc2)cc1 (configuration not stated)
[1]
  CC50: > 3600 nM
[2]
  EC50: 940 nM
[3]
  EC50: 801 nM

## CCNC1=C(C(=O)c2ccccc2)N(CC(=O)c2ccc(Br)cc2)S(=O)(=O)c2ccccc21
[1]
  CC50: > 10000 nM
[2]
  EC50: > 1250 nM
[3]
  EC50: 966 nM

## COc1cc2c3c(c4cc(OC)c(OC)cc4c2cc1OC)CN1CCC[C@@H]1C3 [TYLOPHORINE]
[1]
  CC50: > 7910 nM
[2]
  EC50: > 509 nM
[3]
  EC50: 963 nM

## COCCNCc1cc2cc3c(cc2n(Cc2cccc(F)c2)c1=O)OCO3
[1]
  CC50: > 10000 nM
[2]
  EC50: > 1250 nM
[3]
  EC50: 1270 nM

## CCOC(=O)c1ccc(NC(=O)c2cc3ccccn3n2)cc1
[1]
  CC50: > 10000 nM
[2]
  EC50: > 1250 nM
[3]
  EC50: > 500 nM

## Cc1ccc(N=Nc2nc3ccccc3n2C)c(C)c1
[1]
  CC50: 3600 nM
[2]
  EC50: 87.5 nM
[3]
  EC50: 24.1 nM

## c1ccc2cc3c(N4CCN(CCCN5CCN(c6ccnc7cc8ccccc8cc67)CC5)CC4)ccnc3cc2c1
[1]
  CC50: > 10000 nM
[2]
  EC50: 79.4 nM
[3]
  EC50: 417 nM

## O=[N+]([O-])c1cccc(CNc2ccc(F)c(Cl)c2)c1
[1]
  CC50: > 95600 nM
[2]
  EC50: > 12500 nM
[3]
  EC50: 8050 nM

## CC(C)CC(=O)Nc1nnc(-c2ccc(Br)cc2)s1
[1]
  CC50: > 100000 nM
[2]
  EC50: > 9040 nM
[3]
  EC50: 2330 nM

## CCOC(=O)C1CSC(c2ccc(C(F)(F)F)cc2)N1C(=O)/C=C/c1ccccc1 (configuration not stated)
[1]
  CC50: > 7950 nM
[2]
  EC50: > 1340 nM
[3]
  EC50: 381 nM

## COC(=O)C1CCCN1S(=O)(=O)c1ccc2ccccc2c1 (configuration not stated)
[1]
  CC50: > 100000 nM
[2]
  EC50: > 4940 nM
[3]
  EC50: 2820 nM

## CC(C)N1CCc2c(sc(NC(=O)C(C)(C)C)c2C(N)=O)C1
[1]
  CC50: 71200 nM
[2]
  EC50: 1040 nM
[3]
  EC50: 6260 nM

## CN(C)CCCNc1ncnc2c1[nH]c1ccccc12
[1]
  CC50: > 100000 nM
[2]
  EC50: 233 nM
[3]
  EC50: 934 nM

## CCCN(CCC)S(=O)(=O)c1ccc(C(=O)Nc2ccccc2C(=O)Oc2ccc3c(c2)c(C(=O)OCC)c(C)n3-c2ccccc2)cc1
[1]
  CC50: > 100000 nM
[2]
  EC50: 726 nM
[3]
  EC50: 744 nM

## O=C(O)CSC(C(=O)Nc1ccc(Cl)cc1)c1ccccc1 (configuration not stated)
[1]
  CC50: > 10000 nM
[2]
  EC50: > 1620 nM
[3]
  EC50: > 1360 nM

## CC(C)CCn1c(NCc2ccccc2)nc2c1c(=O)n(CC(N)=O)c(=O)n2C
[1]
  CC50: > 10000 nM
[2]
  EC50: > 1250 nM
[3]
  EC50: 1710 nM
